In US10611750B2, “Tetrahydroquinoline compositions as bet bromodomain inhibitors” (FORMA Therapeutics, Inc., priority 2013, dated 2020):
pIC50: −log10 of the molar value.

Key:
[1] = target: T1, BRD4 Bromodomain 2 (BRD4 BD2) (Homo sapiens, UniProt O60885); experiment: AlphaScreen binding assay, BRD4 BD2; conditions: His-tagged BRD4 BD2 100 nM, biotinylated H4 (1-21) K5/8/12/16 tetra-acetylated peptide 100 nM, compounds listed under IC50 range headings
T1 construct: 333-460 were cloned, expressed, and purified to homogeneity
Summary of the method: (§1)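 Compound dilution series were mixed with His-tagged BRD4 bromodomain and biotinylated tetra-acetylated H4 (1-21) peptide at pH 7.3 (BD1 and peptide at 50 nM, BD2 and peptide at 100 nM). Donor and acceptor beads were then added, and plates were equilibrated at least 1 h before reading. IC50 values were fitted with a four-parameter logistic model.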

[2] = target: T2, BRD4 Bromodomain 1 (BRD4 BD1) (Homo sapiens, UniProt O60885); experiment: AlphaScreen binding assay, BRD4 BD1; conditions: His-tagged BRD4 BD1 50 nM, biotinylated H4 (1-21) K5/8/12/16 tetra-acetylated peptide 50 nM, compounds listed under IC50 range headings
T2 construct: 44-168 and BRD4 BD2
Summary of the method: as §1

[3] = system: acute myelocytic leukemia (AML) cell line MV4-11; experiment: Oncology cell growth assay (3-day proliferation, CellTiter-Glo); format: cell-based; conditions: Homo sapiens, MV4-11, 72 h, MV4-11 cells, 3000 cells/well, compounds listed under IC50 range headings, read-out: MV411 IC50 (gIC50, inhibition of proliferation)
Summary of the method: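 MV4-11 AML cells (RPMI 1640, 10% FBS) plated at 3000 cells/well and exposed 72 h to compound at final 10 to 0.0045 μM (3-fold series). Viability read by CellTiter-Glo luminescence; gIC50 from four-parameter logistic fit between DMSO control and no-cell background.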

| SMILES | pIC50 [1] | pIC50 [2] | pIC50 [3] |
| --- | --- | --- | --- |
| CC(=O)N1c2ccc(-c3cnn(C4CC4)c3)c(Oc3ccccc3)c2CC[C@@H]1C [I-594] | > 7.30 | 6.00 to 7.00 | > 6.30 |
| CC(=O)N1c2ccc(-c3cnn(C4CC4)c3)c(Oc3ccc(C(=O)N(C)C)cc3)c2CC[C@@H]1C [I-595] | 6.30 to 7.30 | 6.00 to 7.00 | > 6.30 |
| CC(=O)N1c2ccc(-c3cnn(C4CC4)c3)c(Oc3ccccc3)c2CCC1C (stereo not drawn) [I-597] | 6.30 to 7.30 | 5.00 to 6.00 | > 6.30 |
| CC1CCc2c(ccc(-c3cnn(C4CC4)c3)c2Oc2ccccc2)N1C(=O)C1CC1 (stereo not drawn) [I-598] | 6.30 to 7.30 | 6.00 to 7.00 | > 6.30 |
| CC(=O)N1c2ccc(-c3cnn(C4COC4)c3)c(OC[C@@H]3CCNC3)c2CC[C@@H]1C [I-600] | 6.30 to 7.30 | 6.00 to 7.00 | < 6.00 |
| CC(=O)N1c2ccc(-c3cnn(C4CC4)c3)c(OC[C@@H]3CCNC3)c2CC[C@@H]1C [I-602] | 6.30 to 7.30 | 6.00 to 7.00 | 6.00 to 6.30 |
| CC(=O)N1c2ccc(-c3cnn(C4CC4)c3)c(OC[C@H]3CCNC3)c2CC[C@@H]1C [I-603] | 6.30 to 7.30 | 6.00 to 7.00 | < 6.00 |

Next, values leading:

| pIC50 [1] | pIC50 [2] | pIC50 [3] | SMILES |
| --- | --- | --- | --- |
| 6.30 to 7.30 | 5.00 to 6.00 | < 6.00 | COC(=O)N1c2ccc(-c3cnn(CCS(C)(=O)=O)c3)c(Oc3ncc(C(F)(F)F)cc3F)c2CC[C@@H]1C [I-588] |
| 6.30 to 7.30 | 5.00 to 6.00 | 6.00 to 6.30 | COC(=O)N1c2ccc(-c3cnn(CC(C)(C)O)c3)c(Oc3ncc(C(F)(F)F)cc3F)c2CC[C@@H]1C [I-589] |
| 6.30 to 7.30 | 5.00 to 6.00 | 6.00 to 6.30 | COC(=O)N1c2ccc(-c3cnn(CCO)c3)c(Oc3ncc(C(F)(F)F)cc3F)c2CC[C@@H]1C [I-590] |
| 6.30 to 7.30 | 5.00 to 6.00 | 6.00 to 6.30 | COC(=O)N1c2ccc(-c3cnn(C4CC4)c3)c(Oc3ncc(C(F)(F)F)cc3F)c2CC[C@@H]1C [I-591] |
| 6.30 to 7.30 | 5.00 to 6.00 | > 6.30 | COC(=O)N1c2ccc(-c3cnn(C4CCNCC4)c3)c(Oc3cccc(C#N)c3)c2CC[C@@H]1C [I-596] |
| 6.30 to 7.30 | 5.00 to 6.00 | > 6.30 | COC(=O)N1c2ccc(-c3cnn(C4CC4)c3)c(Oc3ccccc3)c2CCC1C (stereo not drawn) [I-599] |
